Results reported in US20230043948A1, “METHOD AND KIT FOR CELL GROWTH” (PRECISION CANCER TECHNOLOGIES INC ., priority 2019, published 2023).
“Also recorded” adds a separate entry of the source. Read-outs that look alike come from different tables or passages of the source.

What was measured:
[1] = system: lung cancer cells overexpressing the c-Met receptor (PDX, LXFA-1647); assay: ex vivo drug testing of lung cancer cells overexpressing c-Met in a 3D hydrogel array / Matrigel; format: cell-based, human
Source text: A PEG was used as a hydrogel precursor molecule for making a non self-degradable hydrogel. As a crosslinking agent, peptides containing at least two, preferably two cysteine moieties were used which varied in their amino acid sequence, in particular with respect to the presence or absence of a RGD adhesion motif and with respect to the presence or absence of a MMP degradation sequence. A further variation that was made to some hydrogels was the attachment of a bioactive ligand comprising a RGD adhesion motif or/and a ligand selected from the group consisting of natural laminins, recombinant laminin isoforms, and biofunctional fragments thereof. Examples of suitable recombinant laminin isoforms are laminin-111, laminin-211, laminin-332, laminin-411, laminin-511, or laminin-521. An array of hydrogels varying in the above preselected features was established, by the method described above.
The mechanical properties of the hydrogels were also varied (soft (50-1000 Pa), medium (1000-2000 Pa) or hard (2000-3000 Pa) gels).
For comparison, tests were also conducted in the undefined natural-derived matrix Matrigel®.
The respective drug was added to the culture media after 1 to 8 days of culture (1 to 8 days post cell encapsulation). The drug response was measured after 5 to 10 days post-drug addition. As a preferred culture medium, a medium was preselected that is characterized by the presence of FBS (serum) or Wnt agonists such as R-spondin. According to this example, a culture medium was used that was adapted from the medium described in Sachs et al. (The EMBO Journal e 100300|2019). The preferred culture medium comprised AdDMEM/F12 medium supplemented with glutamine, Noggin, EGF, fibroblast growth factor 7 and 10 [FGF7 and FGF10], HGF, R-spondin-conditioned medium, Primocin, penicillin/streptomycin, N-acetyl-L-cysteine, Nicotinamide, A83-01, SB202190 (p38-inhibitor), Y-27632 (rock inhibitor), B27 supplement and HEPES. Target expression (c-Met and Phospho c-Met) was detected by Western-blot in corresponding growth conditions.

[2] = system: lung cancer cells overexpressing the EGFR receptor (PDX); assay: ex vivo drug testing of lung cancer cells overexpressing EGFR in 3D hydrogel; format: cell-based, human
[3] = system: non-small cell lung cancer (NSCLC) model LXFA-1647; assay: in vivo treatment of patient-derived xenograft (PDX) NSCLC model; set-up: species or system human; conditions: PDX NSCLC model LXFA-1647
[4] = Matrigel as matrix (comparative example 1), FIG. 1c
[5] = conditions of example 1a: soft non self-degradable PEG hydrogel without any RGD motif (responder conditions), FIG. 1b
[6] = responder conditions of example 1a (hydrogel without any RGD motif), FIG. 1e

Structure (SMILES) | drug response (effect of treatment) [1, 4] | drug response (effect of treatment) [1, 5] | drug response (effect of treatment) [2] | drug response (effect of treatment) [2, 6] | tumor growth in vivo [3] | drug response (effect of treatment) ([1]; hydrogel with 1 mM bioactive ligand comprising a RGD motif attached (non-responder conditions, example 1b))
CC(=O)O[C@@]12CO[C@@H]1C[C@H](O)[C@@]1(C)C(=O)[C@H](O)C3=C(C)[C@@H](OC(=O)[C@H](O)[C@@H](NC(=O)OC(C)(C)C)c4ccccc4)C[C@@](O)([C@@H](OC(=O)c4ccccc4)[C@H]21)C3(C)C [Docetaxel] | an effect | clearly effective | – | – | – | –
C#Cc1cccc(Nc2ncnc3cc(OCCOC)c(OCCOC)cc23)c1 [Erlotinib] | – | – | clear effect | – | – | –
CC(=O)O[C@H]1C(=O)[C@@]2(C)[C@H]([C@H](OC(=O)c3ccccc3)[C@]3(O)C[C@H](OC(=O)[C@H](O)[C@@H](NC(=O)c4ccccc4)c4ccccc4)C(C)=C1C3(C)C)[C@]1(OC(C)=O)CO[C@@H]1C[C@@H]2O [Paclitaxel] | – | – | – | clear effect | – | –
OCCn1cc(-c2cnc3nnn(Cc4ccc5ncccc5c4)c3n2)cn1 [PF-04217903] | did not respond; also recorded: No effect | clearly effective | – | no effect | induces tumor growth regression | resistant
